Test results reported in patent US10428060B2, “PI-kinase inhibitors with anti-infective activity” (The Board of Trustees of the Leland Stanford Junior …, priority 2011, dated 2019).

Legend:
[1] = molecular target: T1, PI4KIIIB (Bos taurus, UniProt O02810); assay: PI4KIIIB kinase assay; format: biochemical, bovine
T1 construct: made in house; host or cells: COS-7 cells, transient transfection, anti-HA immunoprecipitate on protein G Sepharose beads

[2] = test system: HCV genotype 2a; assay: microbe, parasite or virus in culture; format: cell-based; details: Hepatitis C virus, Huh7.5, read-out: HCV2a EC50
[3] = molecular target: T2, PI3KC2G (Homo sapiens, UniProt O75747); assay: PI3KC2G kinase assay; format: biochemical
T2 sequence (O75747 1-1486): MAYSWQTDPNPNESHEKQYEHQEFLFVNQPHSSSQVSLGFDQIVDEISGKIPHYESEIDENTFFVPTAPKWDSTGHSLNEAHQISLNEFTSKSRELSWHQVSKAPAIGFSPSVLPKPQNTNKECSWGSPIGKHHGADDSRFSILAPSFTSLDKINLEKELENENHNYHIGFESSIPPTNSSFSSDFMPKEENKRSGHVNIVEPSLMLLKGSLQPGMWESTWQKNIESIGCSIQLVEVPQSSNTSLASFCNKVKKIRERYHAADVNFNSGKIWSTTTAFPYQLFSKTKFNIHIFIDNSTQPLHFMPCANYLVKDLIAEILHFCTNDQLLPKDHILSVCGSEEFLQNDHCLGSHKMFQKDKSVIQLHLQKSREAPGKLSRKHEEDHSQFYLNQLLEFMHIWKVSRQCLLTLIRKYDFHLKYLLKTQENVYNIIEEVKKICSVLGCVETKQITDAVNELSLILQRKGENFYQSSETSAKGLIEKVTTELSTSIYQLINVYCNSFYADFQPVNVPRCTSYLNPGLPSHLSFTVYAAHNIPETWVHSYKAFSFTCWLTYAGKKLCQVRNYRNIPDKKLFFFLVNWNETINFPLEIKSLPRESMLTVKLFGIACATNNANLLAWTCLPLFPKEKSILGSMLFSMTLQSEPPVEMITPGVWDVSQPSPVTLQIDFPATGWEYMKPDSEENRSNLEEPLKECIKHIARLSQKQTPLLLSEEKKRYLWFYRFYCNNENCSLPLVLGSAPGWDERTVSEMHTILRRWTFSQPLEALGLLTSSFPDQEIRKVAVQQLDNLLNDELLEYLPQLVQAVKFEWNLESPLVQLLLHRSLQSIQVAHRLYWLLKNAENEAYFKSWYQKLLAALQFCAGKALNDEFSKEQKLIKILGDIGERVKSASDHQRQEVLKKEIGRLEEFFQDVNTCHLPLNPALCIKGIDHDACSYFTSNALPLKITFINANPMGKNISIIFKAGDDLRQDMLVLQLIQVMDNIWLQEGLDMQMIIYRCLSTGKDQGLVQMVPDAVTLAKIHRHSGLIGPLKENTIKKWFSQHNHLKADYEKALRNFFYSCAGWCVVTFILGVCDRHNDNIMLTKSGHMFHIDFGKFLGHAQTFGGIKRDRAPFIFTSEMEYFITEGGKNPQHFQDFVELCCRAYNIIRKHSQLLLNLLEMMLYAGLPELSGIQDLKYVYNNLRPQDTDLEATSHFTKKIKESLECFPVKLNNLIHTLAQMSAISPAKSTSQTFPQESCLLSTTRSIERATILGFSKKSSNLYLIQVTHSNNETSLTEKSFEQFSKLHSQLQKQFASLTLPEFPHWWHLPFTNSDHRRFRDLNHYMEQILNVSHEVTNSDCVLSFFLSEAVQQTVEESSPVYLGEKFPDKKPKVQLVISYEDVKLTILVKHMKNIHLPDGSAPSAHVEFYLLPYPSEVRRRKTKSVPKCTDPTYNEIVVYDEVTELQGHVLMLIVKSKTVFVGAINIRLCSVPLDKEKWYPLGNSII

T1 sequence (O02810 whole entry): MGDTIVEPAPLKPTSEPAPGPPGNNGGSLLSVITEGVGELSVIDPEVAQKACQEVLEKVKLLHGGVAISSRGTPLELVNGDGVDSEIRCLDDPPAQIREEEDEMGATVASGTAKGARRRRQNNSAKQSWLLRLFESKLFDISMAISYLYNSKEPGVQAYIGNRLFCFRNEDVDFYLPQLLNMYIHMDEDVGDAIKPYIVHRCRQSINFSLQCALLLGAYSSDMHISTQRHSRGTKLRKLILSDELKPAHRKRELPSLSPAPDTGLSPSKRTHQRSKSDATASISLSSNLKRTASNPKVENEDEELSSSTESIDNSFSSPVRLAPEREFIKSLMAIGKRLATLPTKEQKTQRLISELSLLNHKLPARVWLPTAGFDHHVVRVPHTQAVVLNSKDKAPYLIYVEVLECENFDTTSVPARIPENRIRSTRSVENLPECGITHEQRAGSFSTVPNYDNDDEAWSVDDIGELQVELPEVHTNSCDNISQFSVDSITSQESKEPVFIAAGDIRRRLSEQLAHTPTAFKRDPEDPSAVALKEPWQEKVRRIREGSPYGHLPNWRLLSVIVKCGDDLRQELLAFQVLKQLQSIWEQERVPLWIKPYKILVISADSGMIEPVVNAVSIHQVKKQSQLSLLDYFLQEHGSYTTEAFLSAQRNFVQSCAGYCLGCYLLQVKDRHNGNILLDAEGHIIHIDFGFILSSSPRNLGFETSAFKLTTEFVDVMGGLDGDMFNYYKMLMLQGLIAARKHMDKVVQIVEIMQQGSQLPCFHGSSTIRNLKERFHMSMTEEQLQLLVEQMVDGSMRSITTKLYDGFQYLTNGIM

COc1ncc(-c2sc(NC(=O)CC3CCOCC3)nc2C)cc1S(=O)(=O)NC1CCCC(O)C1 (stereo not drawn) [Compound S-263]
IC50 [1]: < 100 nM
EC50 [2]: 1 to 100 nM
IC50 [3]: 100 to 1000 nM
